The results in this text go back to ChEMBL document CHEMBL1136375, “Design and synthesis of spiro-cyclopentenyl and spiro-[1,3]-dithiolanyl substituted pyrrolidine-5,5-trans-lactams as inhibitors of hepatitis C virus NS3/4A protease” (Bioorg Med Chem Lett, 2003).

A short description of series [1]: In vitro stability behavior at 4 hr. Format: physicochemical. The following applies: read-out: Turnover.
The subject of series [2] is Hepatitis C virus. The series can be described thus: Inhibitory activity against hepatitis C virus protease enzyme(HCV) by using ELISA replicon assay. Format: functional, organism-based, Hepacivirus hominis. (In general: An ELISA detects its analyte on a solid surface through an enzyme-linked reagent.)
Series [3] has as its system Hepatitis C virus. The series can be described thus: Inhibitory activity against hepatitis C virus protease enzyme(HCV) NS3/4A. Format: functional, Hepacivirus hominis.

A value given as a limit tells only on which side of the number the result lay.

Consider `CC(C)C(NC(=O)OC(C)(C)C)C(=O)N1CC[C@H]2[C@H]1C1(SCCS1)C(=O)N2C(=O)C1CC1` (relative stereo), for which the degraded at 4 h in series [1] was above 50%. The IC50 (commonly the concentration that inhibits the measured activity by half) with Hepatitis C virus [2] is above 100 µM. The “k obs / 1” value with Hepatitis C virus [3] was 621 M⁻¹ s⁻¹.
For `CC(C)[C@H](NC(=O)OC(C)(C)C)C(=O)N1CC[C@H]2[C@H]1C1(CCC1)C(=O)N2C(=O)C1CC1`, the degraded at 4 h in series [1] is 27%. Also, the IC50 in the series with Hepatitis C virus [2] stood at 4 µM. Moreover, the “k obs / 1” value in the series on Hepatitis C virus [3] was 400 M⁻¹ s⁻¹.
Regarding `CC(C)C(=O)N1C(=O)C2(CCC2)[C@@H]2[C@@H]1CCN2C(=O)[C@@H](NC(=O)OC(C)(C)C)C(C)C` (relative stereo), the degraded at 4 h in series [1] turned out to be 5%. Moreover, the IC50 in the series with Hepatitis C virus [2] turned out to be 3.1 µM. In addition, the “k obs / 1” value with Hepatitis C virus [3] is 166 M⁻¹ s⁻¹.
On to `CC(C)C(=O)N1C(=O)C2(SCCS2)[C@@H]2[C@@H]1CCN2C(=O)C(NC(=O)OC(C)(C)C)C(C)C` (some centres not stated), for which the degraded at 4 h in series [1] is above 50%. Also, in the series with Hepatitis C virus [2], the IC50 amounted to 17 µM. The “k obs / 1” value in the series with Hepatitis C virus [3] was 362 M⁻¹ s⁻¹.
Take `CC(C)C(NC(=O)OC(C)(C)C)C(=O)N1CC[C@H]2[C@H]1C1(CC=CC1)C(=O)N2C(=O)C1CC1` (relative stereo): the “k obs / 1” value in the series on Hepatitis C virus [3] stood at 19 M⁻¹ s⁻¹.
For `CSC(=O)N1C(=O)C2(CCC2)[C@@H]2[C@@H]1CCN2C(=O)[C@@H](NC(=O)OC(C)(C)C)C(C)C`, the IC50 in the series with Hepatitis C virus [2] is 7.9 µM. The “k obs / 1” value with Hepatitis C virus [3] is 154 M⁻¹ s⁻¹.
Take `C=C(C)C(=O)N1C(=O)C2(CCC2)[C@@H]2[C@@H]1CCN2C(=O)[C@@H](NC(=O)OC(C)(C)C)C(C)C`: the “k obs / 1” value in the series with Hepatitis C virus [3] was 24 M⁻¹ s⁻¹.
In the case of `CCN(CC)C(=O)N1C(=O)C2(CCC2)[C@@H]2[C@@H]1CCN2C(=O)[C@@H](NC(=O)OC(C)(C)C)C(C)C`, the “k obs / 1” value with Hepatitis C virus [3] was found to be 3.3 M⁻¹ s⁻¹.
